Results: ChEMBL document CHEMBL5331140, “Discovery of IACS-52825, a Potent and Selective DLK Inhibitor for Treatment of Chemotherapy-Induced Peripheral Neuropathy” (J Med Chem, 2023)
pIC50, pKd: −log10 of the molar value. The source made the active and inactive calls.

How the values were obtained:
[1] = Binding affinity to full length human DLK (1 to 859 residues)/NFkappaB DNA binding domain (unknown origin) fusion protein transfected in HEK293 cells assessed as dissociation constant incubated for 1 hr by Kinomescan assay; assay type: cell-based
[2] = Metabolic stability in mouse liver microsomes assessed as intrinsic clearance at 1 uM in presence of NADPH regenerating system measured for 45 mins by LC-MS/MS analysis; assay type: ADME, Microsome; settings: read-out: CLH
[3] = Metabolic stability in rat liver microsomes assessed as intrinsic clearance at 1 uM in presence of NADPH regenerating system measured for 45 mins by LC-MS/MS analysis; assay type: ADME, Microsome; settings: read-out: CLH
[4] = Metabolic stability in human liver microsomes assessed as intrinsic clearance at 1 uM in presence of NADPH regenerating system measured for 45 mins by LC-MS/MS analysis; assay type: ADME, Microsome; settings: read-out: CLH
[5] = Half life in C57BL/6 mouse at 0.3 mg/kg, iv measured for 24 hrs by LC-MS/MS analysis; assay type: ADME, organism-based; settings: in vivo
[6] = Ratio of unbound drug concentration in C57BL/6 mouse brain to plasma at 0.3 mg/kg, iv measured for 24 hrs by LC-MS/MS analysis; assay type: ADME, organism-based; settings: brain and plasma, read-out: K(p,uu,brain)
[7] = Oral bioavailability in C57BL/6 mouse at 10 mg/kg administered via oral gavage and measured for 24 hrs by LC-MS/MS analysis; assay type: ADME, organism-based; settings: in vivo; for bioavailability: C57BL/6, mouse
[8] = Half life in Sprague-Dawley rat at 3 mg/kg, po or 0.3 mg/kg, iv measured for 24 hrs by LC-MS/MS analysis; assay type: ADME, organism-based; settings: in vivo
[9] = Oral bioavailability in Sprague-Dawley rat at 3 mg/kg administered via oral gavage and measured for 24 hrs by LC-MS/MS analysis; assay type: ADME, organism-based; settings: in vivo
[10] = Half life in Beagle dog at 1 mg/kg, po or 0.3 mg/kg, iv measured for 24 hrs by LC-MS/MS analysis; assay type: ADME, organism-based, Canis lupus familiaris; settings: in vivo
[11] = Oral bioavailability in Beagle dog at 1 mg/kg administered via oral gavage and measured for 24 hrs by LC-MS/MS analysis; assay type: ADME, organism-based, Canis lupus familiaris; settings: in vivo
[12] = Half life in cynomolgus monkey at 1 mg/kg, po or 0.3 mg/kg, iv measured for 24 hrs by LC-MS/MS analysis; assay type: ADME, organism-based, Macaca fascicularis; settings: in vivo
[13] = Oral bioavailability in cynomolgus monkey at 1 mg/kg administered via nasal gavage measured for 24 hrs by LC-MS/MS analysis; assay type: ADME, organism-based, Macaca fascicularis; settings: in vivo
[14] = molecular target: T1, Mitogen-activated protein kinase kinase kinase 12 (Homo sapiens, UniProt Q12852); test: Inhibition of doxycycline-inducible human DLK transfected in HEK293 cells assessed as reduction in c-Jun phosphorylation at Ser63 residue incubated for 5 hrs; assay type: cell-based
T1 sequence (Q12852 whole entry): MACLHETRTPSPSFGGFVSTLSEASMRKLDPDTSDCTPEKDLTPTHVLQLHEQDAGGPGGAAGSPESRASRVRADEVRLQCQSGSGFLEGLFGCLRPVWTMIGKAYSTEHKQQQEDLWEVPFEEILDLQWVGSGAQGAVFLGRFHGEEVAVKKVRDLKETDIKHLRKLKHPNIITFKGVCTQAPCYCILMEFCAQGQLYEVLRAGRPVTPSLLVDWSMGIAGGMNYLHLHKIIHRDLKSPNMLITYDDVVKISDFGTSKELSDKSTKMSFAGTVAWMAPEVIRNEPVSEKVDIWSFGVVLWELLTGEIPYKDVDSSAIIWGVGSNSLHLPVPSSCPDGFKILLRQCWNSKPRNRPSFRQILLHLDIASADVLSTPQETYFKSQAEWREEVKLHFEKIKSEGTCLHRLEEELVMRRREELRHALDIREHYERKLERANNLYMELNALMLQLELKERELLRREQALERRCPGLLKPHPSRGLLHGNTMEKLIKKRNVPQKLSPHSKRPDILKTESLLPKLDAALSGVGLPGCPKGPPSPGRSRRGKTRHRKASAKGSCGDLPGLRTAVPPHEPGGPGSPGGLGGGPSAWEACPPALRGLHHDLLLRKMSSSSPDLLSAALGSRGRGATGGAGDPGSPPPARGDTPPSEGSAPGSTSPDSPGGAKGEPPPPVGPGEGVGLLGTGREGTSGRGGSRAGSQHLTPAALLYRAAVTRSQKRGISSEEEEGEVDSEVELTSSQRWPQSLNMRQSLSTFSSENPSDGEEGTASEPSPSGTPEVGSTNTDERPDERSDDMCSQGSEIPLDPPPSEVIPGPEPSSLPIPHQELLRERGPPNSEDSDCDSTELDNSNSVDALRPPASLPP

[15] = Volume of distribution at steady state in C57BL/6 mouse at 0.3 mg/kg, iv administered via tail vein and measured for 24 hrs by LC-MS/MS analysis; assay type: ADME, organism-based; settings: in vivo, read-out: Vdss
[16] = Half life in C57BL/6 mouse at 0.3 mg/kg, iv administered via tail vein and measured for 24 hrs by LC-MS/MS analysis; assay type: ADME, organism-based; settings: in vivo
[17] = Cmax in C57BL/6 mouse at 10 mg/kg administered via oral gavage and measured for 24 hrs by LC-MS/MS analysis; assay type: ADME, organism-based; design: dose 10 mg/kg, time 24 hrs, route po; settings: in vivo
[18] = AUClast in C57BL/6 mouse at 10 mg/kg administered via oral gavage and measured for 24 hrs by LC-MS/MS analysis; assay type: ADME, organism-based; design: time 24 hrs, dose 10 mg/kg, route po; settings: in vivo
[19] = molecular target: T2, Dual specificity mitogen-activated protein kinase kinase 5 (Homo sapiens) (UniProt Q13163); test: Inhibition of MEK5 (unknown origin) at 1 uM relative to control
T2 sequence (whole entry): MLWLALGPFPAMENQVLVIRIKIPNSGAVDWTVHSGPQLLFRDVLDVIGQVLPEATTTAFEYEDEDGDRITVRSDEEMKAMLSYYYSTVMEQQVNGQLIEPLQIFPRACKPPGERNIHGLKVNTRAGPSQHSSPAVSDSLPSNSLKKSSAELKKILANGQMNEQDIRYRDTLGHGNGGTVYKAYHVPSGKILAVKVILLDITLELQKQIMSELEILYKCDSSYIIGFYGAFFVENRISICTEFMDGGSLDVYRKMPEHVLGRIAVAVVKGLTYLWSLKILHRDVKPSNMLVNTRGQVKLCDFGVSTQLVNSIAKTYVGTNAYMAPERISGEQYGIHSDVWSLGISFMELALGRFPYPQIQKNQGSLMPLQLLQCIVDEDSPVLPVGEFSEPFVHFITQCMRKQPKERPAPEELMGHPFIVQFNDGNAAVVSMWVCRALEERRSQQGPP

[20] = test system: Mus musculus; test: (§1) Antiallodynic activity in cisplatin-induced mechanical allodynia C57BL/6 mouse model assessed as increase in paw withdrawal threshold at 30 mg/kg, po stimulated with cisplatin on day 1 to 5 and 10 to 15 followed by daily administration of compound from day 6 to 16 and measured for 30 days by von frey test; assay type: functional, organism-based; settings: time 25.0 day
[21] = test system: Mus musculus; test: as §1, with “day” for “day 6 to”, “for 35” for “for 30”; assay type: functional, organism-based; settings: time 20.0 day
[22] = Toxicity in rat by GLP toxicity study; settings: in vivo
[23] = molecular target: Voltage-gated inwardly rectifying potassium channel KCNH2 (Homo sapiens, UniProt Q12809)
Chain of Voltage-gated inwardly rectifying potassium channel KCNH2 (Q12809 whole entry): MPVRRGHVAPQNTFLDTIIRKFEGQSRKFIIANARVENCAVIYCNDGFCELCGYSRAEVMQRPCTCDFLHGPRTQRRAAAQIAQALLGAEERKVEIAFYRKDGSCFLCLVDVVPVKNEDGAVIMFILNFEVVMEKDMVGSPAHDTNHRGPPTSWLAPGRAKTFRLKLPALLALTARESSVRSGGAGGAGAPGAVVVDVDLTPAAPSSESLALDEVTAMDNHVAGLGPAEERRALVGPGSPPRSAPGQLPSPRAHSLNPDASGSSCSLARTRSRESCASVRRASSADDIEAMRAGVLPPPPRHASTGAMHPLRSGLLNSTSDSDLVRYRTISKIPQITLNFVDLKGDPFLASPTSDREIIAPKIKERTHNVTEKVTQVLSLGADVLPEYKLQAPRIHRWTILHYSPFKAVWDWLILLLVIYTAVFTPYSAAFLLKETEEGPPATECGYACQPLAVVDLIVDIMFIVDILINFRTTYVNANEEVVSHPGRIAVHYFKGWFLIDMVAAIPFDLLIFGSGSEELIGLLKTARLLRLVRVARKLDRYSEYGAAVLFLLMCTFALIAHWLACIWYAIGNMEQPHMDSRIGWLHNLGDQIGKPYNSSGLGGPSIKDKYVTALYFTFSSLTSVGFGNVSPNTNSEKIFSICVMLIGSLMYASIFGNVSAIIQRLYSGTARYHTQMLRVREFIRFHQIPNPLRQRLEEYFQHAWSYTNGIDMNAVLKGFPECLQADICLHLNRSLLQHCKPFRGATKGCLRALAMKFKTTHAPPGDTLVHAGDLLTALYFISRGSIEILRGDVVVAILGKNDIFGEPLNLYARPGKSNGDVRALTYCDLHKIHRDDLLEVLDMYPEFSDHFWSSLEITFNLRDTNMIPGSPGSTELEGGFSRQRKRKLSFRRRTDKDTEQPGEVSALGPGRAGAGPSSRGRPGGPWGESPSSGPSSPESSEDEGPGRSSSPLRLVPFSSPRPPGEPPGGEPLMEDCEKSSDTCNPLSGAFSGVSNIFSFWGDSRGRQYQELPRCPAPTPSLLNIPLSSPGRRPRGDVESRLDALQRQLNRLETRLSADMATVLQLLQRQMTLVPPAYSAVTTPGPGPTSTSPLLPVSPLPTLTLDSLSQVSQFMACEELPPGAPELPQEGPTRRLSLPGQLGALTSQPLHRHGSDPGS
Description: Inhibition of hERG expressed in CHO cells at -80 mV holding potential by QPatch automated electrophysiology assay

Row | SMILES | CLint scaled at 1 µM [2] [mL/min/kg] | CLint scaled at 1 µM [3] [mL/min/kg] | CLint scaled at 1 µM [4] [mL/min/kg] | Kp uu at 24 h [6] | pKd [1] | other results
1 | Nc1ncc(-c2cn(C34CC(N5CCOCC5)(C3)C4)c(C3CC3)n2)cc1OC(F)(F)F | 12 | 12 | 2 | 0.73 | – | half-life [5]: 3.5 h; bioavailability [7]: > 100%; half-life [8]: 3.4 h; bioavailability [9]: > 100%; half-life [10]: 10.5 h; bioavailability [11]: 77%; half-life [12]: 4.6 h; bioavailability [13]: 66%
2 | CC(C)c1nc(-c2cnc(N)c(C(F)(F)F)c2)cn1C1CC1 | – | – | – | – | 6.89 | –
3 | CC(C)[C@H](O)c1nc(-c2cnc(N)c(OC(F)(F)F)c2)cn1C12CC(N3CCOCC3)(C1)C2 | 3 | 1 | 22 | 0.2 | 9.40 | –
4 | CC(C)(C)Cc1nc(-c2cnc(N)c(C(F)(F)F)c2)cn1C12CC(N3CCOCC3)(C1)C2 | – | 43 | 14 | – | 7.18 | –
5 | Nc1ncc(-c2cc([C@H]3[C@@H]4CN(C5COC5)C[C@@H]43)n(CC3CC3)n2)cc1C(F)(F)F | – | – | – | – | 7.89 | –
6 | Nc1ncc(-c2cn(C34CC(N5CCOCC5)(C3)C4)c(C3CC3)n2)cc1C(F)(F)F | 16 | 10 | 5 | 0.34 | 7.89 | half-life [5]: 3.8 h
7 | CC(C)n1nc(-c2cnc(N)c(C(F)(F)F)c2)cc1C1CC1 | – | – | – | – | 6.96 | –
8 | CC(C)Cc1nc(-c2cnc(N)c(C(F)(F)F)c2)cn1C12CC(N3CCOCC3)(C1)C2 | – | 11 | 9 | – | 8.21 | –
9 | Nc1ncc(-c2cn([C@H]3[C@@H]4CN(C5COC5)C[C@@H]43)c(CC3CC3)n2)cc1C(F)(F)F | – | – | – | – | 7.20 | –
10 | Nc1ncc(-c2cn(C34CC(N5CCOCC5)(C3)C4)c(CC3CC3)n2)cc1C(F)(F)F | – | 5 | 6 | – | – | –

Continued, in another order:

Row | CLint scaled at 1 µM [2] [mL/min/kg] | CLint scaled at 1 µM [3] [mL/min/kg] | CLint scaled at 1 µM [4] [mL/min/kg] | Kp uu at 24 h [6] | SMILES | pKd [1] | other results
11 | 2670 | 238 | 362 | – | CC(C)c1nc(-c2cnc(N)c(C(F)(F)F)c2)cn1C1CCCC1 | 6.65 | –
12 | 199 | 69 | 168 | – | CC(C)c1nc(-c2cnc(N)c(C(F)(F)F)c2)cn1C12CC(C1)C2 | 7.31 | –
13 | 6 | – | 7 | 0.14 | CC(C)c1nc(-c2cnc(N)c(C(F)(F)F)c2)cn1C12CC(N3CCOCC3)(C1)C2 | 7.92 | half-life [5]: 3.3 h
14 | 26 | 32 | 14 | 1.1 | Nc1ncc(-c2cn(C34CC(C3)C4)c([C@@H](O)C(F)(F)F)n2)cc1OC(F)(F)F | 8.92 | pIC50 [14]: 7.32; F ([7]; mouse, po, 10 mg/kg, 24 h): 51%; Vd [15]: 4.6 L/kg; half-life [16]: 3.5 h; Cmax [17]: 2000 nM; AUClast [18]: 14.4 µM·h
15 | – | 91 | 35 | – | CC(C)C(O)c1nc(-c2cnc(N)c(OC(F)(F)F)c2)cn1C12CC(C1)C2 (centres undefined) | 9.22 | –
16 | 789 | 133 | 233 | – | CC(C)c1nc(-c2cnc(N)c(C(F)(F)F)c2)cn1C1CCC1 | 7.18 | –
17 | 9 | 6 | 9 | 0.6 | CC(C)c1nc(-c2cnc(N)c(OC(F)(F)F)c2)cn1C12CC(N3CCOCC3)(C1)C2 | 7.85 | half-life [5]: 3.5 h; bioavailability [7]: > 100%; half-life [8]: 7 h; bioavailability [9]: > 100%; half-life [10]: 22.9 h; bioavailability [11]: 80%; half-life [12]: 6.3 h; bioavailability [13]: 64%; inhibition [19]: 16%; Activity [20]: Active; Activity [21]: Active; Activity [22]: Toxic; pIC50 [23]: < 4.52
